Literature values, collected in PMC5559489 (Scientific Reports, 2017).

Columns and labels:
[1] = system: A(H1N1)pdm2009 clinical isolates with H275Y mutation; conditions: cited from earlier work
[2] = system: A(H1N1)pdm09 isolates containing NA H275Y and I223R; conditions: cited from earlier work

SMILES: CCOC(=O)C1=C[C@@H](OC(CC)CC)[C@H](NC(C)=O)[C@@H](N)C1 [oseltamivir, Oseltamivir]
- decrease of sensitivity compared to wild-type [1]: 1466 fold
- decreased susceptibility to oseltamivir [2]: 246 fold
